Reference: US20240325363A1, “COMPOSITION FOR TREATMENT OF ANTICANCER AGENT-RESISTANT CANCER” (ONCOCROSS CO.,LTD., priority 2021, published 2024)

Experiments:
KRAS [1] = assay: KRAS mRNA expression by Endpoint PCR / qRT-PCR in cancer cell lines; type: cell-based, human; conditions: for KRAS expression: HCT116 cells, comparison with other CDK inhibitors
Procedure: (§1) In order to confirm the effect of inhibiting KRAS expression by GW8510, a human colon cancer cell line HCT116 with a KRAS G13D mutation, a human prostate cancer cell line PC-3 with a KRAS G13D mutation, a human breast cancer cell line MCF7 as a KRAS wild-type cell line, a human pancreatic cancer cell line MIA PaCa-2 with a KRAS G12C mutation, and a human pancreatic cancer cell line PANC-1 with a KRAS G12D mutation were dispensed in a 6-well plate, and treated with GW8510 at 0, 1, 5 or 10 μM of concentration for 3, 6, 24 or 48 hours. Thereafter, RNA was extracted from the cells using a TRIzol™ Reagent (Thermo Fisher Scientific Inc., USA) and then cDNA was synthesized using M-MLV reverse-transcriptase (ELPIS Biotech, Korea), 2.5 mM dNTP (TransGen Biotech, China), and oligo dT15 (bioneer, Korea). Endpoint PCR was performed using an Endpoint PCR solution mixed with the synthesized cDNA, Taq polymerase master mix, and primers shown in Table 1 below, and a QuantStudio 3 Real-Time PCR Instrument (Thermo Fisher Scientific Inc., USA). Thereafter, the mRNA level of KRAS was confirmed by loading the Endpoint PCR solution on an agarose gel. In addition, the mRNA levels of nuclear transcription factor Y (NYFA) and X-linked inhibitor of apoptosis protein (XIAP) as a protein of inhibiting apoptosis, were also confirmed together with KRAS.
(§2) A colon cancer cell line HCT116 (KRAS G13D mut), pancreatic cancer cell lines PANC-1 (KRAS G12D mut) and MIA PaCa-2 (KRAS G12C mut), and a breast cancer cell line MCF7 (KRAS wt) were dispensed in a 6-well plate, and treated with GW8510 at 0, 1, 5 or 10 μM of concentration for 24 hours, and then Endpoint PCR was performed. In addition, a qRT-PCR solution was prepared by mixing SYBR Green Master Mix, the cDNA of Example 2-1, and the primers in Table 1, and qRT-PCR was performed with QuantStudio 3 Real-Time PCR Instrument (Thermo Fisher Scientific Inc., USA) to quantify the gene expression levels. In addition, the phenotypes of the cancer cell line were observed by treatment of GW8510 by using the colon cancer cell line HCT116 treated with GW8510 at 0 or 10 μM of concentration for 24 hours, and the protein expression levels of pan ras, K-ras, and β-actin were measured by immunoblot. Specifically, the colon cancer cell line HCT116 treated with GW8510 at 0 or 10 μM of concentration for 24 hours was lysed with an RIPA buffer (Curebio, Korea), and then the cell lysate was centrifuged and the supernatant was taken. The cell lysate supernatant was added with a 5×SDS sample buffer and then boiled for 10 minutes, and electrophoresis was performed using a 12% SDS polyacrylamide gel. After electrophoresis, a protein was transferred to a PVDF membrane and then blocked with 5% skim milk (TBS-T) at room temperature for 1 hour. Thereafter, primary antibodies (anti-pan ras, anti-K-ras, and anti-β-actin) diluted in a blocking solution at 1:1000 were added and incubated at 4° C. overnight, and then a membrane was washed three times with 0.05% TBS-T, and a secondary antibody (horseradish peroxidase-conjugated 2nd Ab) diluted at 1:10000 was added and incubated for 1 hour at room temperature. The membrane was washed three times with 0.05% TBS-T, developed with an enhanced chemiluminescence (ECL) solution, and exposed to an X-ray film.
(§3) To determine whether the inhibition of KRAS by GW8510 was regulated through Cdk2 inhibition, HCT116 cells were treated with other CDK inhibitors, such as PKC inhibitor H7, Cdk2 inhibitor CVT-313, and Cdk4/6 inhibitor PD0332991, other than GW8510 (Cdk2 inhibitor) for 24 hours, respectively, and then to analyze the cell cycle, the cells were subjected to PI staining and confirmed by flow cytometry, and the KRAS expression levels were confirmed by Endpoint PCR and qRT-PCR.

HCT116 cells = assay: Cell cycle analysis by PI staining and flow cytometry; type: cell-based, human; conditions: 24 hours, PI staining flow cytometry
Procedure: as §3

XIAP = XIAP mRNA expression by Endpoint PCR in cancer cell lines; type: cell-based, human
Procedure: as §1

NFYA = NFYA mRNA expression by Endpoint PCR in cancer cell lines; type: cell-based, human
Procedure: as §1

KRAS [2] = assay: KRAS protein expression by immunoblot; type: cell-based, human; conditions: HCT116, GW8510 0 or 10 μM, 24 hours
Procedure: as §2, with “After electrophoresis, a protein was transferred to a PVDF membrane and then blocked with 5% skim milk (TBS-T) at room temperature for 1 hour. Thereafter, primary antibodies (anti-pan ras, anti-K-ras, and anti-β-actin) diluted in a blocking solution at 1:1000 were added and incubated at 4° C. overnight, and then a membrane was washed three times with 0.05% TBS-T, and a secondary antibody (horseradish peroxidase-conjugated 2nd Ab) diluted at 1:10000 was added and incubated for 1 hour at room temperature. The membrane was washed three times with 0.05% TBS-T, developed with an enhanced chemiluminescence (ECL) solution, and exposed to an X-ray film.” left out

HCT116 cells xenograft = assay: HCT116 xenograft model in nude mice, tumor size; type: in vivo, Balb/c nude mice; conditions: GW8510 10 mg/kg i.p. three times a week, cetuximab 1 mg/mouse i.p. once a week
Procedure: Experimental animals used were 36 6-week-old Balb/c nude mice. The experimental diet and drinking water were taken freely, and all experimental diets were stored in a refrigerator during a breeding period. The mice were pre-bred with regular feed to be adapted to a breeding environment for 7 days before the start of the experiment and then divided into a total of 4 groups. […] In all mice, HCT116 cells were injected with 1×10^6 S.C. at 7 weeks of age to prepare a xenograft model. […] The tumor size was measured using Equation of (long axis×short axis×short axis)/2 and measured three times a week at the same time.

[3] = 24 hours, Endpoint PCR and qRT-PCR
[4] = all of the cell lines (HCT116, PC-3, MCF7, MIA PaCa-2, PANC-1)

COc1ccc(CNc2nc(N(CCO)CCO)nc3c2ncn3C(C)C)cc1 [CVT-313, reference compound]
KRAS expression (KRAS [1]; [3]): no change in KRAS expression
cell cycle (HCT116 cells): arrested in the GO/G1 phase

O=C1Nc2ccc3ncsc3c2/C1=C/Nc1ccc(S(=O)(=O)Nc2ccccn2)cc1 [GW8510]
KRAS transcription level (KRAS [1]; HCT116, PANC-1, MIA PaCa-2 and MCF7, GW8510 0, 1, 5 or 10 μM, 24 hours, Endpoint PCR and qRT-PCR): significantly reduced
KRAS expression (KRAS [1]; [3]): inhibited the KRAS expression
mRNA expression level of KRAS (KRAS [1]; HCT116 colon cancer cells (KRAS G13D), GW8510 0, 1, 5 or 10 μM, 3, 6, 24 or 48 hours, effect from 6 hours, Endpoint PCR): decreased in a concentration-dependent manner
KRAS mRNA level (KRAS [1]; MCF7 breast cancer cells (KRAS wild-type), Endpoint PCR): also reduced
KRAS mRNA level (KRAS [1]; MIA PaCa-2 pancreatic cancer cells (KRAS G12C), Endpoint PCR): decreased
KRAS mRNA level (KRAS [1]; PANC-1 pancreatic cancer cells (KRAS G12D), Endpoint PCR): decreased
KRAS mRNA level (KRAS [1]; PC-3 prostate cancer cells (KRAS G13D), Endpoint PCR): decreased
mRNA expression level of XIAP (XIAP; HCT116 cells (KRAS G13D)): also decreased
mRNA level of XIAP (XIAP; [4]): also decreased
mRNA expression level of NFYA (NFYA; HCT116 cells (KRAS G13D)): also decreased
mRNA level of NFYA (NFYA; [4]): also decreased
KRAS protein level (KRAS [2]): also decreased
tumor size (HCT116 cells xenograft): tended to decrease compared to the control group

CC1CNCCN1S(=O)(=O)c1cccc2cnccc12 (stereo not shown) [H7, reference compound]
KRAS expression (KRAS [1]; [3]): no change in KRAS expression
cell cycle (HCT116 cells): arrested in the GO/G1 phase

CC(=O)c1c(C)c2cnc(Nc3ccc(N4CCNCC4)cn3)nc2n(C2CCCC2)c1=O [PD0332991, reference compound]
KRAS expression (KRAS [1]; [3]): no change in KRAS expression
cell cycle (HCT116 cells): arrested in the GO/G1 phase
